# Source: patent US9689021B2, “Method for measuring beta-lactam antibiotics” (priority 2011, dated 2017)
# Tests used:
# [1] = target: class C beta-lactamase of Escherichia coli K12 (Escherichia coli, UniProt P00811); conditions: cited from earlier work
# [2] = target: class C beta-lactamase of Enterobacter cloacae P99 (Enterobacter cloacae, UniProt P05364); conditions: cited from earlier work
# [3] = target: T1, P99A266C (Enterobacter cloacae, UniProt P05364, A266C); assay: Reaction of immobilized enzyme on ATR element with chromogenic substrate CENTA; assay type: biochemical, Enterobacter cloacae P99
# T1 construct: made in house; host or cells: E. coli BL21(DE3), pET28 vector
# T1 sequence (P05364 other isoform, or with tags, fused parts or gaps A266C): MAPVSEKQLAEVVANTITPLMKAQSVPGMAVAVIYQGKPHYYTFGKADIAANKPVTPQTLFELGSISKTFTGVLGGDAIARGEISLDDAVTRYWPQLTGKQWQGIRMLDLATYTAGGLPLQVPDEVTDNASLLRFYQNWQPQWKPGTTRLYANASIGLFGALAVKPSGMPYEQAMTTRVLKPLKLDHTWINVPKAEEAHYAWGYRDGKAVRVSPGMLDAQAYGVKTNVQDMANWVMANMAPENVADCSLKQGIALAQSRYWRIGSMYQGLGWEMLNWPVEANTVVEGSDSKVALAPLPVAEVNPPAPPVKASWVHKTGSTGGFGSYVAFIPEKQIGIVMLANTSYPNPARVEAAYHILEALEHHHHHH
# Description: On the N-maleimide functionalized ATR element, the class C beta-lactamase P99A266C prepared as in example 2 was bound.
# P99A266C binding onto the functionalized crystal was obtained by depositing 10 μL of a solution (phosphate buffer 50 mM, pH 7) of P99A266C enzyme (30 μg/ml) during 1 h, then rinsing with buffer during 15 min at a rate of 35 μL/min.
# The immobilized enzyme was able to react rapidly with its chromogenic substrate CENTA: this was controlled by the appearance of the […] coloration.
# [4] = test system: class C beta-lactamase of Enterobacter cloacae 908R; conditions: cited from earlier work
# [5] = target: class C beta-lactamase of Pseudomonas aeruginosa (Pseudomonas aeruginosa, UniProt P24735); conditions: Pseudomonas aeruginosa, cited from earlier work
# class C beta-lactamase of Pseudomonas aeruginosa, sequence (P24735 27-397): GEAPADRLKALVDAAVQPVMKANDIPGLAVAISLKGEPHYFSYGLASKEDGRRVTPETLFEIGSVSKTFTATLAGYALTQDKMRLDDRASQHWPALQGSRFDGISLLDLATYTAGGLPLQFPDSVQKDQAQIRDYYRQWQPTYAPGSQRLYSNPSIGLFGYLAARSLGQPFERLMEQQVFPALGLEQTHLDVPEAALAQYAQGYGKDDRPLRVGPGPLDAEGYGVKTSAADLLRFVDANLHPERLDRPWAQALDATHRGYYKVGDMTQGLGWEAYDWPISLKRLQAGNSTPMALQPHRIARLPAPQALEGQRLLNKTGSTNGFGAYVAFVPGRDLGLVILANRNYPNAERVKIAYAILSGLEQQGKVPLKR
# [6] = target: class C beta-lactamase of Citrobacter freundii (Citrobacter freundii, UniProt P05193); conditions: cited from earlier work
# class C beta-lactamase of Citrobacter freundii, sequence (P05193 21-381): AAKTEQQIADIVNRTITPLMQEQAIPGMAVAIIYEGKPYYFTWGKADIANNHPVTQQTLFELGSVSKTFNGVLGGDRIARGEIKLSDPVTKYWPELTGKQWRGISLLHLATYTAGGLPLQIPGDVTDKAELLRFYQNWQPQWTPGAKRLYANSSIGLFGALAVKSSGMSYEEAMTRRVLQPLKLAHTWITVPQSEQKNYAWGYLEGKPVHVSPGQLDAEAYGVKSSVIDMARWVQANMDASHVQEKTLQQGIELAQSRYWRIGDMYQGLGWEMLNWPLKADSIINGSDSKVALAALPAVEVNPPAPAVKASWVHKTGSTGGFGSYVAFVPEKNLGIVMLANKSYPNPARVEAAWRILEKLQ
# [7] = test system: Oxa-29 class D beta-lactamase; assay: BLAC2 method, nitrocefin (CPR) rate with Oxa-29; assay type: biochemical
# Description: (§1) The dilution buffer for the enzymes, CPR, standards and samples was 50 mM PBS buffer, pH 7.0.
# (§2) The stock solution of CPR was 200 μM. Standards solution of ampicillin and cefuroxime were prepared at 100, 75, 50, 30, 15, 5, 1 and 0 mg/L.
# In the method 2 (BLAC2), 99 μl of sample, 99 μl of CPR and 22 μl of enzyme Oxa-29 were mixed. The reaction kinetics was determined by measuring the absorbance at 482 nm as a function of time. Enzyme activity v0 max was adjusted at +/−0.2 ΔAbs482/min.
# [8] = target: class C beta-lactamase of Serratia marcescens (Serratia marcescens, UniProt P18539); conditions: Serratia marcescens, cited from earlier work
# class C beta-lactamase of Serratia marcescens, sequence (P18539 22-376): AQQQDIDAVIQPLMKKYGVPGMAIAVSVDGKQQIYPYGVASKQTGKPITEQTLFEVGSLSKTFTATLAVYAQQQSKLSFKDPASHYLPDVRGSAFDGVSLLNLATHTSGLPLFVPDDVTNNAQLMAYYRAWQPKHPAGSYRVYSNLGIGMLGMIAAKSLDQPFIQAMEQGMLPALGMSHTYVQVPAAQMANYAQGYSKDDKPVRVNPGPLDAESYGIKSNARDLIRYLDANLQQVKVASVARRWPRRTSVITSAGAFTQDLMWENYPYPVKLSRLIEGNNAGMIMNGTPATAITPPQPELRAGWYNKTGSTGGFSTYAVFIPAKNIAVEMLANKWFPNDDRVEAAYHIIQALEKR
# [9] = target: T1, P99A266C; assay: FTIR-ATR biosensor binding; set-up: species or system Enterobacter cloacae P99; conditions: 50-100 μg/mL, 10-20 min, 35 μl/min
# Description: A solution of the beta-lactam antibiotic cefuroxim; obtained from Sigma-Aldrich in milliQ water at a concentration of 50-100 μg/mL was passed over the biosensor constructed in Example 3. The solution was passed over the crystal during 10-20 min at a rate of 35 μl/min.
# FTIR-ATR spectra were recorded and cefuroxim binding was monitored by following the appearance of its characteristic signal. By subtracting the spectrum of the P99A266C, the spectrum of the acyl-enzyme complex appeared clearly. The intensity of the peak at 1730 cm^−1 allowed the quantitative measurement of cefuroxim binding. […] The structure of the acyl-enzyme complex is represented below.
# [10] = target: P99 class C beta-lactamase (Enterobacter cloacae, UniProt P05364); assay: BLAC1 method, nitrocefin (CPR) rate with P99 (Example 7); assay type: biochemical
# P99 class C beta-lactamase, sequence (P05364 21-381): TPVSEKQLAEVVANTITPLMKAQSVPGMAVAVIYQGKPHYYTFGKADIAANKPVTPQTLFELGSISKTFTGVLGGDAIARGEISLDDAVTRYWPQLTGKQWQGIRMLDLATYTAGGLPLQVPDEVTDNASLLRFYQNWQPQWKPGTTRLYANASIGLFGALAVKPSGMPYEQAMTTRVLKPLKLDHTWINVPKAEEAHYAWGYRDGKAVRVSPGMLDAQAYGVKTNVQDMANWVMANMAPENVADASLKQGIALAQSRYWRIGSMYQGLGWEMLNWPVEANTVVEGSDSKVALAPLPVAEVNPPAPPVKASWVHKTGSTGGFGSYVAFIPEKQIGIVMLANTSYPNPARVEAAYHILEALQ
# Description: as §1, §2
# In the method 1 (BLAC1), 10 μl of 50-fold diluted sample, 100 μl of CPR and 100 μl of enzyme P99 were mixed. The reaction kinetics was determined by measuring the absorbance at 482 nm as a function of time. Enzyme activity v0 max was adjusted at +/−0.33 ΔAbs482/min.
# [11] = target: P99 beta-lactamase (Enterobacter cloacae, UniProt P05364); assay: Kinetic assay, reporter substrate competition (colorimetric assay); assay type: biochemical; set-up: made in house; host or cells: E. coli BL21(DE3), pET28-P99
# P99 beta-lactamase, sequence (P05364 22-380, added parts left off): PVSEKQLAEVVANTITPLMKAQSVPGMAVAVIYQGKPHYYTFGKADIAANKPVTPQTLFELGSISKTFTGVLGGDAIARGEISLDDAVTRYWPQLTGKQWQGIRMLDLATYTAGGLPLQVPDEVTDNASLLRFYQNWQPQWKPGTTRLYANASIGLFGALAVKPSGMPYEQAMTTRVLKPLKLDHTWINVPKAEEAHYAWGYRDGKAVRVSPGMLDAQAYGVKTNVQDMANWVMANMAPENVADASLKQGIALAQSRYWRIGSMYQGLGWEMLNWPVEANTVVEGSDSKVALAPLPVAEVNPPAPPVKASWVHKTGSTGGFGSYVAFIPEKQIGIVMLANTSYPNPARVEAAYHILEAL
# Excerpt: (§3) The colorimetric assay used the competition between a reporter substrate and a beta-lactam antibiotic towards the catalytic site of the class C beta-lactamase. In the absence of beta-lactam antibiotic, the class C beta-lactamase P99 hydrolyzed rapidly the reporter substrate and this reaction produced a deep red (nitrocefin) or yellow (CENTA) coloration.
# (§4) In the presence of beta-lactam antibiotic, P99 catalytic activity was less available and thus less able to hydrolyze the reporter substrate. Accordingly, the higher the concentration of beta-lactam antibiotic, the lower the coloration of the medium. In this enzymatic competitive kinetic assay, the UV-Visible absorbance was inversely proportional to the concentration of beta-lactam antibiotic.
# (§5) Report substrate: A stock solution of reporter substrate consisting of 10 mM of CENTA in HEPES (4-(2-hydroxyethyl)-1-piperazineethanesulfonic acid) pH 7.8 (20 mM)/NaCl (200 mM) buffer was diluted 10 times in HEPES pH 7.8 (20 mM)/NaCl (200 mM) buffer.
# (§6) Solution of enzyme: in a spectrophotometer cell, containing HEPES/NaCl buffer (400 μL) and CENTA (100 μL, 100 μM); 20 μL of P99 enzyme solution was added. The concentration of P99 enzyme was variable in function of the preparation and ranged between 0.01 mg/ml to 100 mg/ml. The absorbance variation was measured at 405 nm during 1 min. The enzyme solution used in the experiment was then diluted until the absorbance variation was comprised between 35 and 45 mUAbs/min cm^−1. This diluted solution was further used in this example.
# (§7) 8 standard solutions per antibiotic tested were deposited on a 96-well microplate (40 μL).
# (§8) The absorbance was measured using a microplate reader, with each column being measured separately. The program comprised following the kinetic during 4 min, with 1 measure at 405 nm every 10 seconds (24 measures). In each well and simultaneously, a mixture of 45 μl HEPES/NaCl buffer and 5 μl P99 solution was added. The same mixture was used for the 8 wells of each column, and thus prepared in advance for distribution with a multi-channel pipette. After 1 min incubation at 20° C., the reading was started, and KC Junior™ software (BioTek Instruments, Winooski, Vt.) was used to calculate the slope of each reaction kinetic. The experiments were made in triplicate and reproduced over 5 different days.
# (§9) Kinetic assays with the P99 beta-lactamase and with P99A266C beta-lactamase were performed in order to test and compare the enzyme activities.
# [12] = target: T2, P99A266C beta-lactamase (Enterobacter cloacae, UniProt P05364, A266C); assay: as above; assay type: biochemical, Enterobacter cloacae P99
# T2 construct: made in house; host or cells: E. coli BL21(DE3), pET28 vector
# T2 sequence (P05364 other isoform, or with tags, fused parts or gaps A266C): as the sequence (P05364 other isoform, or with tags, fused parts or gaps A266C) above
# Excerpt: as §3, §4, §5, §6, §7, §8, §9
# class C beta-lactamase of Escherichia coli K12, sequence (P00811 20-377): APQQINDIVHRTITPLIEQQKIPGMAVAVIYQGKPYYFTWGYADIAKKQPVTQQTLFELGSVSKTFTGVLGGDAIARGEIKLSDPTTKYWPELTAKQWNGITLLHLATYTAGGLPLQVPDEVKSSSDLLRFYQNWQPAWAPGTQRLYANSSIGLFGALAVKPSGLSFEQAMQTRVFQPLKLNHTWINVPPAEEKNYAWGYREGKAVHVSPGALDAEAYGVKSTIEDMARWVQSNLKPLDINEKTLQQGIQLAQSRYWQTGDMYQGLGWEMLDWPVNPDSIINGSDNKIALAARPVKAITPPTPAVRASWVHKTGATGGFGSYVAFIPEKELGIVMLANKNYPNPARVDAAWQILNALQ
# class C beta-lactamase of Enterobacter cloacae P99, sequence (P05364 21-381): as the sequence (P05364 21-381) above
compound,measurement,setting,value
CO/N=C(\C(=O)N[C@@H]1C(=O)N2C(C(=O)O)=C(COC(N)=O)CS[C@H]12)c1ccco1 [Cefuroxime],kcat,[1],0.15 s⁻¹
same,Km,[1]; read-out: Km,0.15 µM
same,kcat,[2],0.05 s⁻¹
same,Km,[2]; read-out: Km,0.016 µM
same,reaction of immobilized enzyme with chromogenic substrate when antibiotic fixed,[3],did not occur
same,kcat,[4],0.05 s⁻¹
same,kcat,[5],0.05 s⁻¹
same,Km,[5]; read-out: Km,0.02 µM
same,kcat,[6],0.04 s⁻¹
same,Km,[6]; read-out: Km,0.02 µM
same,rate of Oxa-29 Class D beta-lactamase,"[7]; BLAC2, 1 mg/L",0.2079 ΔAbs482/min
same,"residual rate minus 1, (vomax/v0)−1, Oxa-29","[7]; BLAC2, 1 mg/L",0.072
same,rate of Oxa-29 Class D beta-lactamase,"[7]; BLAC2, 5 mg/L",0.2025 ΔAbs482/min
same,"residual rate minus 1, (vomax/v0)−1, Oxa-29","[7]; BLAC2, 5 mg/L",0.100
same,rate of Oxa-29 Class D beta-lactamase,"[7]; BLAC2, 15 mg/L",0.2011 ΔAbs482/min
same,"residual rate minus 1, (vomax/v0)−1, Oxa-29","[7]; BLAC2, 15 mg/L",0.108
same,rate of Oxa-29 Class D beta-lactamase,"[7]; BLAC2, 30 mg/L",0.1992 ΔAbs482/min
same,"residual rate minus 1, (vomax/v0)−1, Oxa-29","[7]; BLAC2, 30 mg/L",0.118
same,rate of Oxa-29 Class D beta-lactamase,"[7]; BLAC2, 50 mg/L",0.1897 ΔAbs482/min
same,"residual rate minus 1, (vomax/v0)−1, Oxa-29","[7]; BLAC2, 50 mg/L",0.174
same,rate of Oxa-29 Class D beta-lactamase,"[7]; BLAC2, 75 mg/L",0.1796 ΔAbs482/min
same,"residual rate minus 1, (vomax/v0)−1, Oxa-29","[7]; BLAC2, 75 mg/L",0.241
same,rate of Oxa-29 Class D beta-lactamase,"[7]; BLAC2, 100 mg/L",0.1749 ΔAbs482/min
same,"residual rate minus 1, (vomax/v0)−1, Oxa-29","[7]; BLAC2, 100 mg/L",0.274
same,"linear regression coefficient a (Y=aX+b), Oxa-29","[7]; BLAC2, X in mg/L",0.0023
same,"linear regression coefficient b (Y=aX+b), Oxa-29","[7]; BLAC2, X in mg/L",0.0003
same,kcat,[8],0.8 s⁻¹
same,Km,[8]; read-out: Km,0.6 µM
same,binding to P99A266C biosensor (FTIR-ATR),[9],fixed to P99A266C (acyl-enzyme complex)
same,rate of P99 class C beta-lactamase,"[10]; BLAC1, 1 mg/L",0.3247 ΔAbs482/min
same,"residual rate minus 1, (vomax/v0)−1, P99","[10]; BLAC1, 1 mg/L",0.048
same,rate of P99 class C beta-lactamase,"[10]; BLAC1, 5 mg/L",0.2763 ΔAbs482/min
same,"residual rate minus 1, (vomax/v0)−1, P99","[10]; BLAC1, 5 mg/L",0.232
same,rate of P99 class C beta-lactamase,"[10]; BLAC1, 15 mg/L",0.1938 ΔAbs482/min
same,"residual rate minus 1, (vomax/v0)−1, P99","[10]; BLAC1, 15 mg/L",0.756
same,rate of P99 class C beta-lactamase,"[10]; BLAC1, 30 mg/L",0.1417 ΔAbs482/min
same,"residual rate minus 1, (vomax/v0)−1, P99","[10]; BLAC1, 30 mg/L",1.402
same,rate of P99 class C beta-lactamase,"[10]; BLAC1, 50 mg/L",0.0957 ΔAbs482/min
same,"residual rate minus 1, (vomax/v0)−1, P99","[10]; BLAC1, 50 mg/L",2.556
same,rate of P99 class C beta-lactamase,"[10]; BLAC1, 75 mg/L",0.0736 ΔAbs482/min
same,"residual rate minus 1, (vomax/v0)−1, P99","[10]; BLAC1, 75 mg/L",3.624
same,rate of P99 class C beta-lactamase,"[10]; BLAC1, 100 mg/L",0.0539 ΔAbs482/min
same,"residual rate minus 1, (vomax/v0)−1, P99","[10]; BLAC1, 100 mg/L",5.314
same,"linear regression coefficient a (Y=aX+b), P99","[10]; BLAC1, X in mg/L",0.0518
same,"linear regression coefficient b (Y=aX+b), P99","[10]; BLAC1, X in mg/L",0.0013
CCN1CCN(C(=O)N[C@@H](C(=O)N[C@@H]2C(=O)N3[C@@H]2SC(C)(C)[C@@H]3C(=O)O)c2ccccc2)C(=O)C1=O [Piperacillin],P99 rate,[11]; antibiotic 5 ug/ml,9.7 mUAbs/min
same,P99 rate,[11]; antibiotic 10 ug/ml,6.4 mUAbs/min
same,P99 rate,[11]; antibiotic 20 ug/ml,4.0 mUAbs/min
same,P99 rate,[11]; antibiotic 40 ug/ml,2.4 mUAbs/min
same,Diff. (%) P99 vs P99A266C,[12]; antibiotic 5 ug/ml,16%
same,P99A266C rate,[12]; antibiotic 5 ug/ml,8.3 mUAbs/min
same,Diff. (%) P99 vs P99A266C,[12]; antibiotic 10 ug/ml,4%
same,P99A266C rate,[12]; antibiotic 10 ug/ml,6.1 mUAbs/min
same,Diff. (%) P99 vs P99A266C,[12]; antibiotic 20 ug/ml,6%
same,P99A266C rate,[12]; antibiotic 20 ug/ml,3.8 mUAbs/min
same,Diff. (%) P99 vs P99A266C,[12]; antibiotic 40 ug/ml,−4%
same,P99A266C rate,[12]; antibiotic 40 ug/ml,2.5 mUAbs/min
